Measured values as given in patent US10329320B2, “Neuroactive steroids, compositions, and uses thereof” (Sage Therapeutics, Inc., priority 2015, dated 2019).

Target: GABAA receptor ([35S]-TBPS binding, rat brain cortical membranes)
Assay: Steroid inhibition of [35S]-TBPS binding (radioligand displacement)
Details: 3 nM [35S]-TBPS, in the presence of 5 μM GABA
Procedure: TBPS binding assays using rat brain cortical membranes in the presence of 5 μM GABA has been described (Gee et al, J. Pharmacol. Exp. Ther. 1987, 241, 346-353; Hawkinson et al, Mol. Pharmacol. 1994, 46, 977-985; Lewin, A. H et al., Mol. Pharmacol. 1989, 35, 189-194).
Briefly, cortices are rapidly removed following decapitation of carbon dioxide-anesthetized Sprague-Dawley rats (200-250 g). The cortices are homogenized in 10 volumes of ice-cold 0.32 M sucrose using a glass/teflon homogenizer and centrifuged at 1500×g for 10 min at 4° C. The resultant supernatants are centrifuged at 10,000×g for 20 min at 4° C. to obtain the P2 pellets. The P2 pellets are resuspended in 200 mM NaCl/50 mM Na—K phosphate pH 7.4 buffer and centrifuged at 10,000×g for 10 min at 4° C. This washing procedure is repeated twice and the pellets are resuspended in 10 volumes of buffer. Aliquots (100 μL) of the membrane suspensions are incubated with 3 nM [^35S]-TBPS and 5 μL aliquots of test drug dissolved in dimethyl sulfoxide (DMSO) (final 0.5%) in the presence of 5 μM GABA. The incubation is brought to a final volume of 1.0 mL with buffer. Nonspecific binding is determined in the presence of 2 μM unlabeled TBPS and ranged from 15 to 25%. Following a 90 min incubation at room temp, the assays are terminated by filtration through glass fiber filters (Schleicher and Schuell No. 32) using a cell harvester (Brandel) and rinsed three times with ice-cold buffer. Filter bound radioactivity is measured by liquid scintillation spectrometry. Non-linear curve fitting of the overall data for each drug averaged for each concentration is done using Prism (GraphPad). […] The concentration of test compound producing 50% inhibition (IC50) of specific binding and the maximal extent of inhibition (Imax) are determined for the individual experiments with the same model used for the overall data and then the means ±SEM.s of the individual experiments are calculated.
Various compounds are or can be screened to determine their potential as modulators of [^35S]-TBPS binding in vitro. These assays are or can be performed in accordance with the above discussed procedures.

Compound	IC50 [µM]
COC[C@]12CC[C@@](C)(O)C[C@@H]1CC[C@H]1[C@@H]3CC[C@H](C(=O)Cn4cc5cc(F)ncc5n4)[C@@]3(C)CC[C@@H]12 [Compound 75]	0.1 to 0.5
CCOC(=O)c1cn(CC(=O)[C@H]2CC[C@H]3[C@@H]4CC[C@H]5C[C@](C)(O)CC[C@]5(COC)[C@H]4CC[C@]23C)nn1 [Compound 80]	0.1 to 0.5
COC[C@]12CC[C@@](C)(O)C[C@@H]1CC[C@H]1[C@@H]3CC[C@H](C(=O)Cn4ncc(C(=O)O)n4)[C@@]3(C)CC[C@@H]12 [Compound 81]	> 0.5
COC[C@]12CC[C@@](C)(O)C[C@@H]1CC[C@H]1[C@@H]3CC[C@H](C(=O)Cn4cc(C(=O)O)nn4)[C@@]3(C)CC[C@@H]12 [Compound 82]	> 0.5
COC[C@]12CC[C@@](C)(O)C[C@@H]1CC[C@H]1[C@@H]3CC[C@H](C(=O)Cn4ncc(C(N)=O)n4)[C@@]3(C)CC[C@@H]12 [Compound 83]	0.1 to 0.5
COC[C@]12CC[C@@](C)(O)C[C@@H]1CC[C@H]1[C@@H]3CC[C@H](C(=O)Cn4ncc(CO)n4)[C@@]3(C)CC[C@@H]12 [Compound 85]	> 0.5
